Values quoted from earlier work in patent publication US7601427B2, “Curable composition, cured film, antireflection film, polarizing plate and liquid crystal display” (Fujifilm Corporation, priority 2005, dated 2009).

Conditions: pKa of conjugate acid, aqueous solution, from Kagaku Binran

CN(C)CCO [b-17, N,N′-Dimethyl-2-aminoethanol]
pKa: 9.5
